# According to paper PMC12017328, “RNA toehold switch-based reporter assay to assess bacterial uptake of antisense oligomers” (mBio, 2025):
# Columns and labels:
# [1] = test system: E. coli BW25113 expressing TS7-Mut_9::sfGFP; assay: Toehold switch reporter assay, flow cytometry; type: cell-based; settings: CPP conjugated to PNA_toe, 5 µM, 17 h
# Procedure: Overnight cultures of respective bacterial strains (listed in Table S5) were diluted 1:100 in fresh MHB and grown to OD600 0.3. Overnight and secondary cultures were prepared with or without chloramphenicol (20 µg/mL) depending on the antibiotic resistance profile of the strain. Ninty-five microliters of the 0.3 OD600 bacterial suspension was distributed in the 96-well plate and mixed with 5 µL water or 20× CPP PNA working solutions (150 µM, 100 µM or 50 µM stocks in water). An equivalent volume of water was added to the bacteria to serve as untreated control. […]
# (§1) The PNA-treated samples were incubated in the plate reader for 4–24 h at 37°C, with continuous double-orbital shaking (237 counts per minute). The fluorescence (λex 480 nm/λem 510 nm) and OD600 were recorded in a Synergy H1 plate reader (Biotek) by measuring every 20 min. The bacteria were sampled at various time points post-treatment and further analyzed by flow cytometry.
# (§2) Bacterial cells were treated as described above, fixed with 4% paraformaldehyde (PFA) in phosphate-buffered saline (PBS) after the indicated time points, and stained with 1 µg/mL DAPI for flow cytometric measurement of DAPI-positive bacterial cells. […] Flow cytometry was performed using the Agilent Novocyte flow cytometer with a high-throughput sampler, and 100,000 events were recorded per sample. […]
# [2] = test system: Salmonella, UPEC 536, E. coli MG1655 and BW25113 expressing TS7-Mut_9::sfGFP; assay: Toehold switch reporter assay, flow cytometry, statements for all strains; type: cell-based, Salmonella enterica; E. coli; settings: CPP conjugated to PNA_toe, 5 µM; for Dynamics of sfGFP upregulation: measured at 4, 6 and 17 h, all strains
# Procedure: According to previous RNA-seq analyses ([12], [13], [22]), CPP-PNAs can strongly downregulate target mRNAs within 15 min. […] We therefore repeated the screen conducted and assayed fluorescence by flow cytometry at 4, 6, and 17 h post-treatment. […] The level of upregulation observed in the E. coli K12 strains was again substantially lower than in Salmonella and UPEC 536. […] This might be related to the stability of KFF in the culture media.
# Fig 9 Flow cytometric analysis of fluorescence of sfGFP informs on delivery efficiency of CPPs. Bacterial cultures expressing the TS7-Mut_9::sfGFP reporter construct treated with the indicated CPP-PNA_toe constructs at 5 µM each. The median fluorescence intensity of sfGFP was measured after 4 h (black bars), 6 h (dark gray bars), and 17 h (light gray bars) of treatment using flow cytometry. Relative upregulation of sfGFP is shown and was calculated by dividing the median fluorescence intensity of the test samples by the median fluorescence intensity of the control samples, to which water was added. Error bars indicate the standard deviation calculated from two independent experiments.
# (§3) Overnight cultures of respective bacterial strains (listed in Table S5) were diluted 1:100 in fresh MHB and grown to OD600 0.3. Overnight and secondary cultures were prepared with or without chloramphenicol (20 µg/mL) depending on the antibiotic resistance profile of the strain. Ninty-five microliters of the 0.3 OD600 bacterial suspension was distributed in the 96-well plate and mixed with 5 µL water or 20× CPP PNA working solutions (150 µM, 100 µM or 50 µM stocks in water). An equivalent volume of water was added to the bacteria to serve as untreated control. For testing the activity in other growth media (M9 minimal medium and LB), the bacteria were cultured in the respective media and treated as described above.
# (§4) Bacterial cells were treated as described above, fixed with 4% paraformaldehyde (PFA) in phosphate-buffered saline (PBS) after the indicated time points, and stained with 1 µg/mL DAPI for flow cytometric measurement of DAPI-positive bacterial cells. Cell suspensions were diluted by a factor of ~100–1,000 in PBS and sampled from 96-well plates to achieve ~2,000 counts/s for flow cytometric measurements. Flow cytometry was performed using the Agilent Novocyte flow cytometer with a high-throughput sampler, and 100,000 events were recorded per sample. The DAPI fluorescence was detected using the Pacific Blue channel; sfGFP and mNeon were detected in the FITC channel, and mCherry fluorescence in the PE-Texas Red channel. The lower threshold for FSC-H was set to 2,000 to eliminate the potential artifacts from smaller particles such as dust, bubbles, or cell debris. The wild-type strains without plasmids served as a control to detect the background fluorescence, termed bacterial background. A contour plot with FSC and SSC, each with bins defined on a logarithmic scale was used to select singlets. The gating strategy is described in Fig.S6. The median fluorescence intensity was used for calculating the fold upregulation of fluorescence. Flow cytometry data sets were analyzed using the Novocyte software (Agilent).
# (§5) Fold upregulation in median fluorescence intensity (FI) from flow cytometry was calculated as follows:
# (§6) fold upregulation = FI (sample)−FI(bacterial background)/FI (water control)−FI(bacterial background)
# [3] = test system: Salmonella carrying the TS7::sfGFP reporter plasmid; assay: Toehold switch reporter assay, flow cytometry; type: cell-based, Salmonella enterica serovar Typhimurium strain SL1344
# Procedure: as §3, §1, §4, §5, §6
# [4] = test system: Salmonella carrying the TS7::sfGFP reporter plasmid; assay: Toehold switch reporter assay, microplate reader; type: cell-based, Salmonella enterica serovar Typhimurium strain SL1344; settings: CPP conjugated to PNA_toe, 5 µM, TS7-Mut_9::sfGFP, 17 h, MHB; for Fold increase in fluorescence compared to the water-treated control: normalized to OD600
# Source text: Next, we tested whether 11-mer PNAs can activate the toehold switch in bacteria. We established the reporter assay in Salmonella enterica serovar Typhimurium (referred to as Salmonella hereafter), which we have previously used as a model organism for studying PNAs ([13], [17], [22]). In constructing a reporter plasmid, we cloned the TS7 sequence upstream of the coding sequence of superfolder GFP (sfGFP) and downstream of a constitutive PLtetO-1 promoter in the pXG10-SF vector ([35]) (see Materials and Methods for details). The final product is a fusion protein (TS7::sfGFP) in which the 10 amino acids from the short TS7 coding sequence are genetically linked to the N-terminus of sfGFP. We introduced the reporter plasmid in Salmonella. The bacteria were grown to an early log-phase in standard Mueller-Hinton broth (MHB), commonly used for testing antibacterial activity ([36]). As a proof-of-concept, we chose to deliver the PNAs through conjugation with (KFF)3K, a frequently used CPP (referred to as KFF hereafter). We tested two PNAs, PNA_toe as used above in vitro and a PNA that targets the mid-stem region (PNA_mid) of the switch (Fig. 2A). We treated the bacterial culture with varying concentrations (2.5 µM, 5 µM, or 7.5 µM) of the KFF-PNAs in a microtiter plate, recording GFP fluorescence and turbidity as bacterial growth continued.
# as §3, §1
# (§7) Normalization of fluorescence intensity (FInorm) = FI (sample)−FI (medium background)/OD
# Fold upregulation in fluorescence intensity (FI) from the plate reader was calculated as follows:
# fold upregulation = FI (normalized sample)/FI (normalized control)
# [5] = test system: E. coli BW25113, MG1655 and UPEC 536 carrying TS7-Mut_9::sfGFP; assay: Toehold switch reporter assay, microplate reader, E. coli strains; type: cell-based; settings: CPP conjugated to PNA_toe; 5 µM; 17 h; MHB; all three E. coli strains
# Source text: Having established the CPP screening assay in Salmonella, we next tested it in E. coli. We chose the E. coli K12 strains BW25113 and MG1655, and the uropathogenic isolate E. coli 536 (UPEC 536). […] To test if the low fluorescence was due to lower sfGFP protein levels, we performed a western blot analysis after treating the bacteria with CPP-PNAs (Fig. S4). The upregulation of sfGFP protein correlated with fluorescence upregulation. The E. coli K12 strains were less susceptible than Salmonella. For these strains, a more sensitive method compared to the microplate reader such as flow cytometry might provide better results.
# Fig 8 Examining the performance of the toehold switch assay for screening of CPPs against E. coli. Various E. coli strains carrying the TS7-Mut_9::sfGFP encoding plasmid were treated with different CPP-PNA_toe constructs at 5 µM. As negative control, an equal volume of water (Control) was added instead. (A) Fluorescence intensity of sfGFP was recorded in a microplate reader for 17 h post-treatment measured in a microplate reader. (B) Upregulation in sfGFP fluorescence calculated relative to the water control based on the normalized fluorescence intensities at 17 h post-treatment. The experiment was performed two times, and bars indicate the mean value; error bars indicate the standard deviation from two independent experiments.
# Overnight cultures of respective bacterial strains (listed in Table S5) were diluted 1:100 in fresh MHB and grown to OD600 0.3. […]
# as §1, §7
# Fold upregulation in fluorescence intensity (FI) from the plate reader was calculated as follows: […]
# [6] = cited from earlier work
# Source text: (§8) For example, we observed a rapid but transient increase in fluorescence for some CPPs (e.g., KFF) and a sustained increase for others (e.g., RXR). This variation can likely be explained by the chemistry and stability of these carriers. […] Therefore, the different dynamics in fluorescence increase c ...
# [7] = test system: Salmonella ΔsbmA mutant carrying TS7-Mut_9::sfGFP; assay: Toehold switch reporter assay, flow cytometry, ΔsbmA mutant; type: cell-based, Salmonella enterica serovar Typhimurium; settings: 5 µM, 4 h
# Source text: To confirm that activation of the toehold-switch reporter correlates with successful uptake of PNAs, we used a Salmonella ΔsbmA mutant strain unable to express the inner membrane transporter SbmA. […] In the ΔsbmA strain, treatment with KFF-PNA_toe triggered only marginal GFP expression in a small subpopulation of cells (ca 20%) as opposed to nearly 100% of all cells in the corresponding wild-type strain (Fig. 6A). The overall fluorescence intensity (FI) of the ΔsbmA mutant was also much lower than the wild-type strain (Fig. 6B).
# Fig 6 Flow cytometric analysis of CPP-PNA uptake using the toehold switch reporter in a ΔsbmA mutant of Salmonella. […] (B) Median fluorescence intensity values for water-treated control (Control, black) and PNA-treated (KFF-PNA_toe, orange) samples are given in the plots. […]
# as §2, with “sample. The DAPI fluorescence was detected using the Pacific Blue channel; sfGFP and mNeon were detected in the FITC channel, and mCherry fluorescence in the PE-Texas Red channel.” for “sample.”
# bacteria = settings: CPP conjugated to anti-acpP PNA; ref [13]; cited from earlier work
# Source text: as §8
substance,measurement,setting,value
"RRRQRRKKRGY [Seq118, cell-penetrating peptide …]",Reporter activation (fold upregulation of sfGFP vs water control),[1],fivefold
same,Dynamics of sfGFP upregulation,[2],only showed upregulation at the 17 h time point
KFFKFFKFFK [KFF-PNA_ctrl],Activation of GFP expression,"[3]; TS7::sfGFP, 7.5 µM, 4 h post-treatment, MHB",did not activate GFP expression
"RRWQW [L5a, cell-penetrating peptide RRWQW]",Fold increase in fluorescence compared to the water-treated control,[4],negligible upregulation
"RXRRXRRXRRXRXB [cell-penetrating peptide RXRRXRRXRRXRXB, carrier for PNA]",Reporter activation (sfGFP fluorescence vs water control),[5],highest reporter activation
same,Stability to proteolytic degradation,"[6]; unconjugated carrier peptide, ref [47]",resistant to proteolytic degradation
same,Fold increase in fluorescence compared to the water-treated control,[4],highest fold increase in fluorescence
same,Speed of increase in fluorescence signal,[4],rapid increase in fluorescence signal
same,Dynamics of sfGFP upregulation,[2],rapid upregulation at 4 h
KFFKFFKFFK [KFF-PNA_toe],Upregulation of the reporter (median fluorescence vs water control),"[3]; TS7-Mut_9::sfGFP, 5 µM, 4 h, Luria broth (LB)",6- to 8 fold
same,Activation of the reporter (median fluorescence vs water control),"[3]; TS7-Mut_9::sfGFP, 5 µM, 4 h, M9 minimal medium",50- to 60 fold
same,Activation of the reporter (median fluorescence vs water control),"[3]; TS7-Mut_9::sfGFP, 5 µM, 4 h, MHB, two independent experiments",50- to 60 fold
same,Activation of the reporter compared with the original switch,"[3]; TS7-Mut_13::sfGFP, 5 µM, 4 h, MHB",no improvement over the original switch
same,Activation of the reporter compared with the original switch,"[3]; TS7-Mut_18::sfGFP, 5 µM, 4 h, MHB",no improvement over the original switch
same,Upregulation of the reporter (median fluorescence vs water control),"[3]; original TS7::sfGFP, 4 h, MHB",around 30 fold
same,GFP positive population,"[3]; wild-type, TS7-Mut_9::sfGFP, 5 µM, 4 h",~100%
same,GFP positive population,[7],~20%
"GRRRRRRRRRPPQ [R9-TAT, cell-penetrating peptide …]",Fold increase in fluorescence compared to the water-treated control,[4],negligible upregulation
same,Dynamics of sfGFP upregulation,[2],only showed upregulation at the 17 h time point
"RRRRR [R5, cell-penetrating peptide RRRRR]",Dynamics of sfGFP upregulation,[2],only showed upregulation at the 17 h time point
"RQIKIWFQNRRMKWKK [ANT, cell-penetrating peptide …]",Fold increase in fluorescence compared to the water-treated control,[4],highest fold increase in fluorescence
same,Dynamics of sfGFP upregulation,[2],rapid upregulation at 4 h
"RXRRXRRXRRXRXB [RXR-acpP, RXR conjugated to anti-acpP PNA …]",Time after which bacteria are eradicated,bacteria,15 min
"VALLPAVLLA [Seq23, cell-penetrating peptide …]",Reporter activation (sfGFP fluorescence vs water control),[5],least effective PNA carrier
same,Fold increase in fluorescence compared to the water-treated control,[4],none
same,Dynamics of sfGFP upregulation,[2],least active carrier
"KFFKFFKFFK [cell-penetrating peptide …, carrier for PNA]",Reporter activation (sfGFP fluorescence vs water control),[5],highest reporter activation
same,Stability to proteases and in culture medium,[6],sensitive to proteases and degraded in nutrient-rich media such as MHB
same,Fold increase in fluorescence compared to the water-treated control,[4],highest fold increase in fluorescence
same,Speed of increase in fluorescence signal,[4],rapid increase in fluorescence signal
same,Change of fluorescence over time,"[2]; 4, 6 and 17 h",decrease
same,Dynamics of sfGFP upregulation,[2],rapid upregulation at 4 h
"RKKRRQRR [Seq35, cell-penetrating peptide RKKRRQRR]",Dynamics of sfGFP upregulation,[2],only showed upregulation at the 17 h time point
